Test results taken from patent US10513522B2, “Azetidinyl phenyl, pyridyl or pyrazinyl carboxamide derivatives as JAK inhibitors” (Incyte Corporation, priority 2011, dated 2019).

System: human JAK1 (a.a. 837-1142)
Assay: In vitro JAK kinase assay (HTRF, phosphorylation of biotinylated peptide), JAK1
Assay type: biochemical
Details: ratio of IC50 at 1 mM ATP
Experimental: The catalytic activity of JAK1, JAK2 or JAK3 was assayed by measuring the phosphorylation of a biotinylated peptide. The phosphorylated peptide was detected by homogenous time resolved fluorescence (HTRF). […] Reactions were carried out at room temperature for 1 hour and then stopped with 20 μL 45 mM EDTA, 300 nM SA-APC, 6 nM Eu-Py20 in assay buffer (Perkin Elmer, Boston, Mass.). Binding to the Europium labeled antibody took place for 40 minutes and HTRF signal was measured on a Fusion plate reader (Perkin Elmer, Boston, Mass.).

Question: `N#CCC1(n2cc(-c3ccnc4[nH]ccc34)cn2)CN(c2ccc(C(=O)NC3(C(F)(F)F)CC3)nc2)C1` [Example 40, 5-{3-(Cyanomethyl)-3-[4-(1H-pyrrolo[2,3-b]pyridin-4-yl)-1H-pyrazol-1-yl]azetidin-1-yl}-N-[1-(trifluoromethyl)cyclopropyl]pyridine-2-carboxamide] was tested. Which JAK2/JAK1 did it give?
Answer: The JAK2/JAK1 was “A (A means greater than or equal to 10)”.

Question: With `N#CCC1(n2cc(-c3ncnc4[nH]ccc34)cn2)CN(c2cc(F)c(C(=O)NCC(F)F)cc2F)C1` [Example 37, 4-{3-(Cyanomethyl)-3-[4-(7H-pyrrolo[2,3-d]pyrimidin-4-yl)-1H-pyrazol-1-yl]azetidin-1-yl}-N-(2,2-difluoroethyl)-2,5-difluorobenzamide] as the compound, how does the JAK2/JAK1 read?
Answer: Its JAK2/JAK1 is “A (A means greater than or equal to 10)”.

Question: Which JAK2/JAK1 does the source give for `N#CCC1(n2cc(-c3ccnc4[nH]ccc34)cn2)CN(c2cnc(C(=O)NCC(F)(F)F)cn2)C1` [Example 36, 5-{3-(Cyanomethyl)-3-[4-(1H-pyrrolo[2,3-b]pyridin-4-yl)-1H-pyrazol-1-yl]azetidin-1-yl}-N-(2,2,2-trifluoroethyl)pyrazine-2-carboxamide] here?
Answer: The JAK2/JAK1 was “A (A means greater than or equal to 10)”.

Question: Which JAK2/JAK1 does the source give for `C[C@@H](NC(=O)c1cc(F)c(N2CC(CC#N)(n3cc(-c4ncnc5[nH]ccc45)cn3)C2)cc1F)C(F)(F)F` [Example 29, 4-{3-(Cyanomethyl)-3-[4-(7H-pyrrolo[2,3-d]pyrimidin-4-yl)-1H-pyrazol-1-yl]azetidin-1-yl}-2,5-difluoro-N-[(1R)-2,2,2-trifluoro-1-methylethyl]benzamide] here?
Answer: Its JAK2/JAK1 is “A (A means greater than or equal to 10)”.

Question: How did the JAK2/JAK1 turn out when `C[C@@H](NC(=O)c1ccc(N2CC(CC#N)(n3cc(-c4ncnc5[nH]ccc45)cn3)C2)c(F)c1)C1CC1` [Example 4, 4-{3-(Cyanomethyl)-3-[4-(7H-pyrrolo[2,3-d]pyrimidin-4-yl)-1H-pyrazol-1-yl]azetidin-1-yl}-N-[(1R)-1-cyclopropylethyl]-3-fluorobenzamide] was run?
Answer: The JAK2/JAK1 was “A (A means greater than or equal to 10)”.

Question: Which JAK2/JAK1 does the source give for `N#CCC1(n2cc(-c3ncnc4[nH]ccc34)cn2)CN(c2ccc(C(=O)N[C@@H](C3CC3)C(F)(F)F)cc2)C1` [Example 38, 4-{3-(Cyanomethyl)-3-[4-(7H-pyrrolo[2,3-d]pyrimidin-4-yl)-1H-pyrazol-1-yl]azetidin-1-yl}-N-[(1S)-1-cyclopropyl-2,2,2-trifluoroethyl]benzamide] here?
Answer: The JAK2/JAK1 was “A (A means greater than or equal to 10)”.

Question: How did the JAK2/JAK1 turn out when `C[C@H](NC(=O)c1ccc(N2CC(CC#N)(n3cc(-c4ncnc5[nH]ccc45)cn3)C2)c(F)c1)C1CC1` [Example 5, 4-{3-(Cyanomethyl)-3-[4-(7H-pyrrolo[2,3-d]pyrimidin-4-yl)-1H-pyrazol-1-yl]azetidin-1-yl}-N-[(1S)-1-cyclopropylethyl]-3-fluorobenzamide] was run?
Answer: Its JAK2/JAK1 is “A (A means greater than or equal to 10)”.

Question: Which JAK2/JAK1 does the source give for `C[C@H](NC(=O)c1cnc(N2CC(CC#N)(n3cc(-c4ccnc5[nH]ccc45)cn3)C2)cn1)C(F)(F)F` [Example 35, 5-{3-(Cyanomethyl)-3-[4-(1H-pyrrolo[2,3-b]pyridin-4-yl)-1H-pyrazol-1-yl]azetidin-1-yl}-N-[(1S)-2,2,2-trifluoro-1-methylethyl]pyrazine-2-carboxamide] here?
Answer: Its JAK2/JAK1 is “A (A means greater than or equal to 10)”.

Question: Which JAK2/JAK1 does the source give for `N#CCC1(n2cc(-c3ncnc4[nH]ccc34)cn2)CN(c2cnc(C(=O)N[C@@H](C3CC3)C(F)(F)F)cn2)C1` [Example 32, 5-{3-(Cyanomethyl)-3-[4-(7H-pyrrolo[2,3-d]pyrimidin-4-yl)-1H-pyrazol-1-yl]azetidin-1-yl}-N-[(1S)-1-cyclopropyl-2,2,2-trifluoroethyl]pyrazine-2-carboxamide] here?
Answer: Its JAK2/JAK1 is “A (A means greater than or equal to 10)”.

Question: `C[C@H](NC(=O)c1ccc(N2CC(CC#N)(n3cc(-c4ncnc5[nH]ccc45)cn3)C2)c(F)c1)C(F)(F)F` [Example 10, 4-{3-(Cyanomethyl)-3-[4-(7H-pyrrolo[2,3-d]pyrimidin-4-yl)-1H-pyrazol-1-yl]azetidin-1-yl}-3-fluoro-N-[(1S)-2,2,2-trifluoro-1-methylethyl]benzamide] was tested. Which JAK2/JAK1 did it give?
Answer: Its JAK2/JAK1 is “A (A means greater than or equal to 10)”.

Question: `N#CCC1(n2cc(-c3ccnc4[nH]ccc34)cn2)CN(c2cnc(C(=O)N[C@@H](C3CC3)C(F)(F)F)cn2)C1` [Example 42, 5-{3-(Cyanomethyl)-3-[4-(1H-pyrrolo[2,3-b]pyridin-4-yl)-1H-pyrazol-1-yl]azetidin-1-yl}-N-[(1S)-1-cyclopropyl-2,2,2-trifluoroethyl]pyrazine-2-carboxamide] was tested. Which JAK2/JAK1 did it give?
Answer: Its JAK2/JAK1 is “A (A means greater than or equal to 10)”.

Question: How did the JAK2/JAK1 turn out when `C[C@H](NC(=O)c1ccc(N2CC(CC#N)(n3cc(-c4ncnc5[nH]ccc45)cn3)C2)cc1F)C(F)(F)F` [Example 22, 4-{3-(Cyanomethyl)-3-[4-(7H-pyrrolo[2,3-d]pyrimidin-4-yl)-1H-pyrazol-1-yl]azetidin-1-yl}-2-fluoro-N-[(1S)-2,2,2-trifluoro-1-methylethyl]benzamide] was run?
Answer: Its JAK2/JAK1 is “A (A means greater than or equal to 10)”.

Question: Which JAK2/JAK1 does the source give for `CC(C)NC(=O)c1ccc(N2CC(CC#N)(n3cc(-c4ccnc5[nH]ccc45)cn3)C2)cc1` [Example 1, 4-{3-(Cyanomethyl)-3-[4-(1H-pyrrolo[2,3-b]pyridin-4-yl)-1H-pyrazol-1-yl]azetidin-1-yl}-N-isopropylbenzamide] here?
Answer: Its JAK2/JAK1 is “A (A means greater than or equal to 10)”.

Question: `C[C@H](NC(=O)c1cc(F)c(N2CC(CC#N)(n3cc(-c4ncnc5[nH]ccc45)cn3)C2)cc1F)C(F)(F)F` [Example 28, 4-{3-(Cyanomethyl)-3-[4-(7H-pyrrolo[2,3-d]pyrimidin-4-yl)-1H-pyrazol-1-yl]azetidin-1-yl}-2,5-difluoro-N-[(1S)-2,2,2-trifluoro-1-methylethyl]benzamide] was tested. Which JAK2/JAK1 did it give?
Answer: The JAK2/JAK1 was “A (A means greater than or equal to 10)”.

Question: `CCNC(=O)c1ccc(N2CC(CC#N)(n3cc(-c4ncnc5[nH]ccc45)cn3)C2)cn1` [Example 24, 5-{3-(Cyanomethyl)-3-[4-(7H-pyrrolo[2,3-d]pyrimidin-4-yl)-1H-pyrazol-1-yl]azetidin-1-yl}-N-ethylpyridine-2-carboxamide] was tested. Which JAK2/JAK1 did it give?
Answer: The JAK2/JAK1 was “A (A means greater than or equal to 10)”.

Question: How did the JAK2/JAK1 turn out when `C[C@H](NC(=O)c1cnc(N2CC(CC#N)(n3cc(-c4ccnc5[nH]ccc45)cn3)C2)cn1)C1CC1` [Example 41, 5-{3-(Cyanomethyl)-3-[4-(1H-pyrrolo[2,3-b]pyridin-4-yl)-1H-pyrazol-1-yl]azetidin-1-yl}-N-[(1S)-1-cyclopropylethyl]pyrazine-2-carboxamide] was run?
Answer: The JAK2/JAK1 was “A (A means greater than or equal to 10)”.

Question: `C[C@H](NC(=O)c1ccc(N2CC(CC#N)(n3cc(-c4ncnc5[nH]ccc45)cn3)C2)cc1F)C1CCCCC1` [Example 15, 4-{3-(Cyanomethyl)-3-[4-(7H-pyrrolo[2,3-d]pyrimidin-4-yl)-1H-pyrazol-1-yl]azetidin-1-yl}-N-[(1S)-1-cyclohexylethyl]-2-fluorobenzamide] was tested. Which JAK2/JAK1 did it give?
Answer: Its JAK2/JAK1 is “A (A means greater than or equal to 10)”.

Question: How did the JAK2/JAK1 turn out when `C[C@@H](NC(=O)c1ccc(N2CC(CC#N)(n3cc(-c4ncnc5[nH]ccc45)cn3)C2)cc1F)C1CC1` [Example 39, 4-{3-(Cyanomethyl)-3-[4-(7H-pyrrolo[2,3-d]pyrimidin-4-yl)-1H-pyrazol-1-yl]azetidin-1-yl}-N-[(1R)-1-cyclopropylethyl]-2-fluorobenzamide] was run?
Answer: Its JAK2/JAK1 is “A (A means greater than or equal to 10)”.

Question: Which JAK2/JAK1 does the source give for `C[C@@H](NC(=O)c1cnc(N2CC(CC#N)(n3cc(-c4ncnc5[nH]ccc45)cn3)C2)cn1)C(F)(F)F` [Example 30, 5-{3-(Cyanomethyl)-3-[4-(7H-pyrrolo[2,3-d]pyrimidin-4-yl)-1H-pyrazol-1-yl]azetidin-1-yl}-N-[(1R)-2,2,2-trifluoro-1-methylethyl]pyrazine-2-carboxamide] here?
Answer: The JAK2/JAK1 was “A (A means greater than or equal to 10)”.

Question: Which JAK2/JAK1 does the source give for `CC(NC(=O)c1ccc(N2CC(CC#N)(n3cc(-c4ncnc5[nH]ccc45)cn3)C2)cc1)C1CCN(C)CC1` (centres unmarked) [Example 20, 4-{3-(Cyanomethyl)-3-[4-(7H-pyrrolo[2,3-d]pyrimidin-4-yl)-1H-pyrazol-1-yl]azetidin-1-yl}-N-[1-(1-methylpiperidin-4-yl)ethyl]benzamide] here?
Answer: The JAK2/JAK1 was “A (A means greater than or equal to 10)”.

Question: How did the JAK2/JAK1 turn out when `C[C@H](NC(=O)c1ccc(N2CC(CC#N)(n3cc(-c4ccnc5[nH]ccc45)cn3)C2)cn1)C1CC1` [Example 2, 5-{3-(Cyanomethyl)-3-[4-(1H-pyrrolo[2,3-b]pyridin-4-yl)-1H-pyrazol-1-yl]azetidin-1-yl}-N-[(1S)-1-cyclopropylethyl]pyridine-2-carboxamide] was run?
Answer: The JAK2/JAK1 was “A (A means greater than or equal to 10)”.

Question: With `N#CCC1(n2cc(-c3ncnc4[nH]ccc34)cn2)CN(c2ccc(C(=O)NC3(C(F)(F)F)CC3)nc2)C1` [Example 17, 5-{3-(Cyanomethyl)-3-[4-(7H-pyrrolo[2,3-d]pyrimidin-4-yl)-1H-pyrazol-1-yl]azetidin-1-yl}-N-[1-(trifluoromethyl)cyclopropyl]pyridine-2-carboxamide] as the compound, how does the JAK2/JAK1 read?
Answer: Its JAK2/JAK1 is “A (A means greater than or equal to 10)”.

Question: With `C[C@@H](NC(=O)c1ccc(N2CC(CC#N)(n3cc(-c4ncnc5[nH]ccc45)cn3)C2)c(F)c1)C(F)(F)F` [Example 16, 4-{3-(Cyanomethyl)-3-[4-(7H-pyrrolo[2,3-d]pyrimidin-4-yl)-1H-pyrazol-1-yl]azetidin-1-yl}-3-fluoro-N-[(1R)-2,2,2-trifluoro-1-methylethyl]benzamide] as the compound, how does the JAK2/JAK1 read?
Answer: The JAK2/JAK1 was “A (A means greater than or equal to 10)”.

Question: With `CC(C)NC(=O)c1cc(Cl)c(N2CC(CC#N)(n3cc(-c4ncnc5[nH]ccc45)cn3)C2)cc1F` [Example 8, 5-Chloro-4-{3-(cyanomethyl)-3-[4-(7H-pyrrolo[2,3-d]pyrimidin-4-yl)-1H-pyrazol-1-yl]azetidin-1-yl}-2-fluoro-N-isopropylbenzamide] as the compound, how does the JAK2/JAK1 read?
Answer: The JAK2/JAK1 was “A (A means greater than or equal to 10)”.

Question: `C[C@H](NC(=O)c1cnc(N2CC(CC#N)(n3cc(-c4ncnc5[nH]ccc45)cn3)C2)cn1)C(F)(F)F` [Example 31, 5-{3-(Cyanomethyl)-3-[4-(7H-pyrrolo[2,3-d]pyrimidin-4-yl)-1H-pyrazol-1-yl]azetidin-1-yl}-N-[(1S)-2,2,2-trifluoro-1-methylethyl]pyrazine-2-carboxamide] was tested. Which JAK2/JAK1 did it give?
Answer: The JAK2/JAK1 was “A (A means greater than or equal to 10)”.

Question: Which JAK2/JAK1 does the source give for `CC(C)NC(=O)c1ccc(N2CC(CC#N)(n3cc(-c4ncnc5[nH]ccc45)cn3)C2)c(F)c1` [Example 3, 4-{3-(Cyanomethyl)-3-[4-(7H-pyrrolo[2,3-d]pyrimidin-4-yl)-1H-pyrazol-1-yl]azetidin-1-yl}-3-fluoro-N-isopropylbenzamide] here?
Answer: The JAK2/JAK1 was “A (A means greater than or equal to 10)”.
